According to PubChem BioAssay (NCI):
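1) Cells in 96-well plates. 2) Compound, 48 h, 5 concentrations. 3) Linear interpolation between surrounding doses. 4) Unreached endpoint = highest concentration. At the GI50, growth is halved. TGI: concentration producing complete growth inhibition.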

Assays:
Test in all cases: NCI tumour cell line growth inhibition, 48 h
786-0 renal = tested on: 786-0 renal
A498 renal = tested on: A498 renal
A549 NSCLC = tested on: A549 NSCLC
ACHN renal = tested on: ACHN renal
BT-549 breast = tested on: BT-549 breast
CAKI-1 renal = tested on: CAKI-1 renal
CCRF-CEM leukemia = tested on: CCRF-CEM leukemia
COLO 205 colon = tested on: COLO 205 colon
DU-145 prostate = tested on: DU-145 prostate
EKVX NSCLC = tested on: EKVX NSCLC
HCC-2998 colon = tested on: HCC-2998 colon
HCT-116 colon = tested on: HCT-116 colon
HCT-15 colon = tested on: HCT-15 colon
HL-60(TB) leukemia = tested on: HL-60(TB) leukemia
HOP-62 NSCLC = tested on: HOP-62 NSCLC
HOP-92 NSCLC = tested on: HOP-92 NSCLC
HS 578T breast = tested on: HS 578T breast
HT29 colon = tested on: HT29 colon
IGROV1 ovarian = tested on: IGROV1 ovarian
K-562 leukemia = tested on: K-562 leukemia
KM12 colon = tested on: KM12 colon
LOX IMVI melanoma = tested on: LOX IMVI melanoma
M14 melanoma = tested on: M14 melanoma
MALME-3M melanoma = tested on: MALME-3M melanoma
MCF7 breast = tested on: MCF7 breast
MDA-MB-231 breast = tested on: MDA-MB-231 breast
MDA-MB-435 = tested on: MDA-MB-435
MOLT-4 leukemia = tested on: MOLT-4 leukemia
NCI-H226 lung = tested on: NCI-H226 lung
NCI-H23 lung = tested on: NCI-H23 lung
NCI-H460 lung = tested on: NCI-H460 lung
NCI-H522 lung = tested on: NCI-H522 lung
NCI/ADR-RES ovarian = tested on: NCI/ADR-RES ovarian
OVCAR-3 ovarian = tested on: OVCAR-3 ovarian
OVCAR-4 ovarian = tested on: OVCAR-4 ovarian
OVCAR-5 ovarian = tested on: OVCAR-5 ovarian
OVCAR-8 ovarian = tested on: OVCAR-8 ovarian
PC-3 prostate = tested on: PC-3 prostate
RPMI-8226 leukemia = tested on: RPMI-8226 leukemia
RXF 393 renal = tested on: RXF 393 renal
SF-268 CNS = tested on: SF-268 CNS
SF-295 CNS = tested on: SF-295 CNS
SF-539 CNS = tested on: SF-539 CNS
SK-MEL-2 melanoma = tested on: SK-MEL-2 melanoma
SK-MEL-28 melanoma = tested on: SK-MEL-28 melanoma
SK-MEL-5 melanoma = tested on: SK-MEL-5 melanoma
SK-OV-3 ovarian = tested on: SK-OV-3 ovarian
SN12C renal = tested on: SN12C renal
SNB-19 CNS = tested on: SNB-19 CNS
SNB-75 CNS = tested on: SNB-75 CNS
SR leukemia = tested on: SR leukemia
SW-620 colon = tested on: SW-620 colon
T-47D breast = tested on: T-47D breast
TK-10 renal = tested on: TK-10 renal
U251 CNS = tested on: U251 CNS
UACC-257 melanoma = tested on: UACC-257 melanoma
UACC-62 melanoma = tested on: UACC-62 melanoma
UO-31 renal = tested on: UO-31 renal

Question: What does the source list for COC(=O)c1c2c(c[n+]([O-])c1C)C(=O)C=C(NCc1ccccc1)C2=O?
Answer: GI50 (786-0 renal): 295 nM; TGI (786-0 renal): 1220 nM; GI50 (A498 renal): 210 nM; TGI (A498 renal): 1050 nM; GI50 (A549 NSCLC): 227 nM; TGI (A549 NSCLC): 564 nM; GI50 (ACHN renal): 210 nM; TGI (ACHN renal): 579 nM; GI50 (BT-549 breast): 169 nM; TGI (BT-549 breast): 319 nM; GI50 (CAKI-1 renal): 289 nM; TGI (CAKI-1 renal): 1120 nM; GI50 (CCRF-CEM leukemia): 264 nM; TGI (CCRF-CEM leukemia): 955 nM; GI50 (COLO 205 colon): 151 nM; TGI (COLO 205 colon): 372 nM; GI50 (DU-145 prostate): 172 nM; TGI (DU-145 prostate): 316 nM; GI50 (EKVX NSCLC): 205 nM; TGI (EKVX NSCLC): 507 nM; GI50 (HCC-2998 colon): 213 nM; TGI (HCC-2998 colon): 492 nM; GI50 (HCT-116 colon): 189 nM; TGI (HCT-116 colon): 586 nM; GI50 (HCT-15 colon): 151 nM; TGI (HCT-15 colon): 350 nM; GI50 (HL-60(TB) leukemia): 174 nM; TGI (HL-60(TB) leukemia): 445 nM; GI50 (HOP-62 NSCLC): 209 nM; TGI (HOP-62 NSCLC): 590 nM; GI50 (HOP-92 NSCLC): 287 nM; TGI (HOP-92 NSCLC): 822 nM; GI50 (HS 578T breast): 263 nM; TGI (HS 578T breast): 710 nM; GI50 (HT29 colon): 211 nM; TGI (HT29 colon): 1420 nM; GI50 (IGROV1 ovarian): 167 nM; TGI (IGROV1 ovarian): 389 nM; GI50 (K-562 leukemia): 192 nM; TGI (K-562 leukemia): 1860 nM; GI50 (KM12 colon): 222 nM; TGI (KM12 colon): 785 nM; GI50 (LOX IMVI melanoma): 175 nM; TGI (LOX IMVI melanoma): 451 nM; GI50 (M14 melanoma): 161 nM; TGI (M14 melanoma): 315 nM; GI50 (MALME-3M melanoma): 42.3 nM; TGI (MALME-3M melanoma): 153 nM; GI50 (MCF7 breast): 149 nM; TGI (MCF7 breast): 361 nM; GI50 (MDA-MB-231 breast): 200 nM; TGI (MDA-MB-231 breast): 618 nM; GI50 (MDA-MB-435): 125 nM; TGI (MDA-MB-435): 255 nM; GI50 (MOLT-4 leukemia): 203 nM; TGI (MOLT-4 leukemia): 497 nM; GI50 (NCI-H226 lung): 338 nM; TGI (NCI-H226 lung): 1490 nM; GI50 (NCI-H23 lung): 169 nM; TGI (NCI-H23 lung): 421 nM; GI50 (NCI-H460 lung): 215 nM; TGI (NCI-H460 lung): 476 nM; GI50 (NCI-H522 lung): 189 nM; TGI (NCI-H522 lung): 509 nM; GI50 (NCI/ADR-RES ovarian): 237 nM; TGI (NCI/ADR-RES ovarian): 798 nM; GI50 (OVCAR-3 ovarian): 41.3 nM; TGI (OVCAR-3 ovarian): 209 nM; GI50 (OVCAR-4 ovarian): 90.4 nM; TGI (OVCAR-4 ovarian): 225 nM; GI50 (OVCAR-5 ovarian): 192 nM; TGI (OVCAR-5 ovarian): 390 nM; GI50 (OVCAR-8 ovarian): 220 nM; TGI (OVCAR-8 ovarian): 787 nM; GI50 (PC-3 prostate): 208 nM; TGI (PC-3 prostate): 996 nM; GI50 (RPMI-8226 leukemia): 258 nM; TGI (RPMI-8226 leukemia): 843 nM; GI50 (RXF 393 renal): 197 nM; TGI (RXF 393 renal): 521 nM; GI50 (SF-268 CNS): 263 nM; TGI (SF-268 CNS): 929 nM; GI50 (SF-295 CNS): 154 nM; TGI (SF-295 CNS): 298 nM; GI50 (SF-539 CNS): 182 nM; TGI (SF-539 CNS): 353 nM; GI50 (SK-MEL-2 melanoma): 171 nM; TGI (SK-MEL-2 melanoma): 363 nM; GI50 (SK-MEL-28 melanoma): 245 nM; TGI (SK-MEL-28 melanoma): 554 nM; GI50 (SK-MEL-5 melanoma): 140 nM; TGI (SK-MEL-5 melanoma): 274 nM; GI50 (SK-OV-3 ovarian): 425 nM; TGI (SK-OV-3 ovarian): 1600 nM; GI50 (SN12C renal): 156 nM; TGI (SN12C renal): 298 nM; GI50 (SNB-19 CNS): 281 nM; TGI (SNB-19 CNS): 954 nM; GI50 (SNB-75 CNS): 166 nM; TGI (SNB-75 CNS): 309 nM; GI50 (SR leukemia): 204 nM; GI50 (SW-620 colon): 258 nM; TGI (SW-620 colon): 727 nM; GI50 (T-47D breast): 197 nM; TGI (T-47D breast): 653 nM; GI50 (TK-10 renal): 690 nM; TGI (TK-10 renal): 2090 nM; GI50 (U251 CNS): 255 nM; TGI (U251 CNS): 787 nM; GI50 (UACC-257 melanoma): 148 nM; TGI (UACC-257 melanoma): 323 nM; GI50 (UACC-62 melanoma): 154 nM; TGI (UACC-62 melanoma): 304 nM; GI50 (UO-31 renal): 183 nM; TGI (UO-31 renal): 477 nM
